Laboratory results: patent publication US9850221B2, “Sulfated and unsulfated flavonoid oligomers as cancer therapeutics” (VIRGINIA COMMONWEALTH UNIVERSITY, priority 2013, dated 2017)
pIC50: −log10 of the molar value.

What was measured:
CSC markers mRNA = test: Real-time PCR of CSC marker mRNA; assay type: cell-based, human; conditions: 6 hours following treatment
Description: Real-Time PCR Analysis. Total RNA was isolated using the mirVana™ miRNA Isolation Kit (Life technologies, Grand Island, N.Y.). 1 μg total RNA was reverse transcribed using First-Strand cDNA Synthesis Kit using hexamer reverse primer (Affymetrix). Real time QPCR was performed using RT^2 SYBR® Green qPCR Master mix (Qiagen) in a 7500 fast real time machine (Applied Biosystem). Relative expressions of mRNA were calculated using ΔΔCT methods using GAPDH as a loading control.

HT-29 cell line = test: MTT cell proliferation assay, monolayer growth; assay type: cell-based, human; conditions: monolayer conditions
Description: Cell Proliferation Assay. Cell proliferation was evaluated by (3-(4,5-dimethylthiazol-2-yl)-2,5-diphenyltetrazolium bromide) MTT cell proliferation assay. For HT-29 cell line approximately 2.5×10^3 cells/100 μL/well were plated in 96-well tissue culture treated plate. After overnight incubation at 37° C. vehicle (control) or NSGM was added at the desired concentration and the cells were further incubated for 60-72 h. At the end of the incubation, 10 μL of 5 mg/mL MTT solution (Sigma) made in phosphate buffered saline (PBS) (Gibco) was added to each well and incubated for minimum of 2 to 3 hr until crystals formation was observed. Following this, 150 μL of 4 mM HCl (Sigma) in isopropanol solution was added drop wise to each well and the mixture was triturated until the crystals dissolve completely. Finally, the plate was placed on the spectrophotometer reader and read at 590 nm and growth inhibition was calculated as percent of control.

[1] = test system: self-renewal factors OCT4, BMI-1, c-MYC; test: Western blot of self-renewal factors in spheroids; assay type: cell-based, human; conditions: 100 μM, HT-29
Description: (§1) Western Blotting Analysis. Western blot analysis was performed according to the standard protocol described in the literature. Briefly, HT-29 cells were plated in serum-free SCM in a low adhesion 6-well plate to obtain spheroids. Mature spheroids were treated on day 4 after plating, with vehicle or NSGMs for indicated time and cells were solubilized in lysis buffer (20 mM Na3PO4, 100 mM NaCl, 2 mM EDTA, 1% Nonidet P-40, 2.5 mM Na3VO4) containing protease (Roche) as well as phosphatase inhibitor cocktails (Sigma). Following centrifugation at 14,000 g for 15 min, the supernatant was used for Western blot analysis. In all analyses, protein concentration was determined by the Bio-Rad Protein Assay kit (Bio-Rad). Approximately 25-50 μg of protein was separated by polyacrylamide gel electrophoresis and was transferred to PVDF membrane (Bio-Rad). Blocking was done with 5% low fat milk powder for 1 hr followed by overnight incubation with primary antibody (dilution 1:1000): anti-CD44 (Cell Signaling), anti-EpCAM (Cell Signaling), anti-LGR5 (Origene), anti-CD133 ((Miltenyi Biotec), anti-CXCR4 (Abeam), anti-OCT4 (Cell Signaling), anti-BMI-1 (Millipore), anti-c-MYC (Millipore) and anti-CK20 (Abeam). This was followed by incubation with appropriate secondary antibody and protein bands were visualized using the enhanced chemiluminescence detection system and imaged with LAS-3000 Imaging System (FUJIFILM). Densitometry was determined by AIDA image analyzer software (Raytest) and results were calculated as relative intensity compared to control. All experiments were performed at least three times.

LGR5 = test: Flow cytometry analysis of CSC markers in HT-29 spheroids; assay type: cell-based, human; conditions: 100 μM, vs vehicle-treated controls
Description: Flow Cytometry Analysis. Human colon cancer HT-29 cells, grown in spheroid or monolayer condition were treated with vehicle or NSGMs for 24 hours, were trypsinized and single cells were re-suspended at 10^6 cells/mL in PBS buffer. Cells were incubated with fluorophore conjugated antibody for 30 minutes at 4° C. and washed once with PBS buffer prior to analysis. Following antibody and dilution were used: LGR5-PE) (Dilution 1:50, Origene), DCLK1 (Dilution 1:33, Abeam). Cell sorting was performed using FACSAria™ II High-Speed Cell Sorter (BD Biosciences) and data were analyzed with FCS Express 4 Flow Cytometry software (De-Novo Software).

HCT116 cells = test: Mice tumor xenograft model, intratumoral G2.2; assay type: in vivo, NOD-SCID mice
Description: One million HCT116 cells were washed with PBS and injected subcutaneously (0.2 mL cell suspension in 50% matrigel) into 6-week-old NOD-SCID mice (Taconic Incorporation, Germantown, N.Y.) on both flanks. Once the tumors become palpable, 16 mice were randomized into two groups. In the treatment group, animals received direct intratumoral (IT) injection of appx 1.125 mg of G2.2 dissolved in 75 μl PBS (pH=7.4) solution three times a week for three weeks (a total of 10 mg of G2.2 over three weeks). Control animals were also received IT injection with 75 μl of vehicle alone (PBS) on the same schedule. Tumor size was measured three times a week using caliber and tumor volume was calculated as previously described. Mice were also weighed three times a week. All the animals were sacrificed within 1 week after completion of therapy using approved method of CO2 asphyxiation. Tumor xenografts were minced with scalpels blade into small pieces and then digested in DMEM/F12 medium containing 300 units/mL collagenase (Stem Cell Technologies) and 100 units/mL hyaluronidase (Stem Cell Technologies) for 1 hr at 37° C. Cells were then washed and re-suspended to a final concentration of 10^6 cell/mL in DMEM/2% FBS. Cell suspensions from the tumor samples were incubated with PE conjugated LGR5 or CXCR4 antibody for 30 minutes and washed two times with PBS buffer and then analyzed (FIG. 18A-B). […] However, none of these values were statistically significant (p>0.1).

[2] = Animal weight in mice tumor xenograft model; assay type: in vivo, NOD-SCID mice; conditions: intratumoral, appx 1.125 mg three times a week for three weeks
Description: One million HCT116 cells were washed with PBS and injected subcutaneously (0.2 mL cell suspension in 50% matrigel) into 6-week-old NOD-SCID mice (Taconic Incorporation, Germantown, N.Y.) on both flanks. Once the tumors become palpable, 16 mice were randomized into two groups. In the treatment group, animals received direct intratumoral (IT) injection of appx 1.125 mg of G2.2 dissolved in 75 μl PBS (pH=7.4) solution three times a week for three weeks (a total of 10 mg of G2.2 over three weeks). Control animals were also received IT injection with 75 μl of vehicle alone (PBS) on the same schedule. Tumor size was measured three times a week using caliber and tumor volume was calculated as previously described. Mice were also weighed three times a week. All the animals were sacrificed within 1 week after completion of therapy using approved method of CO2 asphyxiation. Tumor xenografts were minced with scalpels blade into small pieces and then digested in DMEM/F12 medium containing 300 units/mL collagenase (Stem Cell Technologies) and 100 units/mL hyaluronidase (Stem Cell Technologies) for 1 hr at 37° C. Cells were then washed and re-suspended to a final concentration of 10^6 cell/mL in DMEM/2% FBS. Cell suspensions from the tumor samples were incubated with PE conjugated LGR5 or CXCR4 antibody for 30 minutes and washed two times with PBS buffer and then analyzed (FIG. 18A-B). […]

HT-29 cells [3] = test: Primary (1°) colonosphere formation assay, HT-29 (Screen 1); assay type: cell-based, human; conditions: steep dose-response profile; read-out: apparent IC50 for primary spheroid inhibition
Description: (§2) Primary (1°) Colonosphere Formation Assay. For primary sphere formation, cells were plated in non-treated, low adhesion, 96 wells plate at the concentration of 100 cells/100 μL/well in stem cell media (SCM) that consisted of DMEM:F12:AA (Gibco), supplemented with 1×B27 (Gibco), 20 ng/mL epidermal growth factor and 10 ng/mL fibroblast growth factor (Sigma). After four hour of incubation, vehicle (control) or NSGM at the desired concentrations were added to each well (at least in triplicates for each sample). On day five, numbers of spheres ranging from […] in diameter were counted using phase contrast microscope and percent inhibition was calculated compared to control.
(§3) In this screen, sulfated NSGMs that inhibit HT-29 growth under spheroid conditions, but not under monolayer conditions, were then assessed for retention of 2° and 3° spheroid growth inhibition profiles in the absence of NSGM. The latter screen is of particular importance as primary spheroid growth although selective for CSCs doses not distinguish between non self-renewing progenitors and self-renewing CSCs. […] These 11 NSGMs belonged to G2, G4, G11 and G12 scaffolds but only four of the six G2 molecules, one of the two G4, four of the seven G11 and two of the five G12 molecules satisfied the first screen.

[4] = test system: HCT-116 cells, grown in spheroid condition; test: Apoptosis assay (annexin V/propidium iodide and acridine orange/ethidium bromide); assay type: cell-based, human
Description: Apoptosis Assay. Human colon cancer HCT-116 cells, grown in spheroid condition were treated with vehicle or NSGMs for 24 hours. Following which cells were trypsinized and single cells were re-suspended at 10^6 cells/mL in PBS buffer. Two different methods were used to assess apoptosis induction. In the first methods, cells were incubated with propidium iodide and Annexin V-APC (ebioscience) and flow cytometric analyses were performed as above. […] Briefly, a small volume of cell suspension was mounted on a glass slide and incubated with 1 μl of AO/EB solution and mixed gently just prior to microscopy and quantification. At least 500 cells in 10-15 fields were examined in each sample using Nikon ECLIPSE E800M fluorescence microscope using 20× objective. […] The data was expressed as apoptosis index=[([apoptotic cells (NSGMs)/total cells (NSGMs)]/[apoptotic cells (vehicle)/total cells (vehicle)]).

HT-29 colon cancer cells = test: Cell cycle distribution in spheroid cells; assay type: cell-based, human; conditions: 24 hours, 100 μM, vs vehicle
[5] = test system: CSC markers CD44, CD133, EpCAM, LGR5, CXCR-4; test: Western blot of CSC markers in HT-29 spheroids; assay type: cell-based, human; conditions: 100 μM; for reduction of expression of CSC markers (CD44, CD133, EpCAM, LGR5, CXCR-4): HT-29 spheroids, Western blot densitometry vs vehicle
Description: as §1

CK20 = test: Differentiation assay (CK20 expression) in colonosphere cells; assay type: cell-based, human; conditions: spheroid cells on collagen, 2.5% serum, Western blot and immunocytochemistry
Description: Differentiation Assay. Single cell suspension from mature HT-29 colonosphere pre-treated with vehicle or G2.2 for 24 hours were plated on collagen coated glass cover slips or flasks in the presence of media supplemented with 2.5% FBS containing G2.2 or vehicle. At indicated time points, cells lysate was examined for CK-20 expression with western-blot as above. Alternatively, cells were fixed with 4% paraformaldehyde for 20 minutes at room temperature, permeabilized for 5 min in 0.5% Triton X-100 solution and blocked in PBS containing 1% BSA for one hour prior to incubation with anti-CK-20 antibody (Abeam) for 2 hours. Cells were then washed, incubated for 60 min with Alexa Fluor conjugate secondary antibodies, rinsed with blocking buffer and mounted on slides with DAPI containing ProLong® Gold Antifade Reagent (Invitrogen). Fluorescently labeled cells were examined using a Zeiss LSM700 laser scanning confocal microscope (Zeiss Micro imaging Inc.). Alexa Flour® 555 signals were imaged sequentially at 40× magnification in frame-interlaced mode to eliminate cross talk between channels.

[6] = test system: Panc-1 (pancreatic) cancer cell lines; test: Primary spheroid formation assay, Panc-1; assay type: cell-based, human
Description: as §2

HCT-116 = test: Primary spheroid formation assay, HCT-116; assay type: cell-based, human; conditions: HCT-116 (p53 null)
Description: as §2, §3

HT-29 cells [7] = test: Secondary (2°) and tertiary (3°) colonosphere assay, HT-29 (Screen 2); assay type: cell-based, human; conditions: no NSGM in 2° and 3° growth assays
Description: Secondary (2°) and Tertiary (3°) Colonosphere Assay. For secondary colonospheres, the 96-well plate of primary spheres was centrifuged at speed of 1000 rpm for 1 min and the supernatant was removed. Spheres that settled at the base of the plate were trypsinized with 20 μL/well and single cell suspension was prepared using vigorous mechanical dissociation. The numbers of viable cell were counted with 1:5 ratio of cell:trypan blue and then re-plated at 100 cells/[…] in SCM media in a low adhesion plate. No further treatment with NSGMs was performed. Numbers of spheres were counted as above on day 5. The same method was repeated for tertiary spheres.
The 11 sulfated NSGMs were then studied for their effect on 2° and 3° sphere formation (HT-29 and HCT-116) in Screen 2. By design, this screen reflects a test of true self-renewability of CSCs.^2,3 Single cell suspension obtained from primary spheres formed above was then cultured in the absence of NSGM.

[8] = compared to vehicle treated xenografts, flow cytometry

SMILES: O=c1c(OS(=O)(=O)[O-])c(-c2ccc(OS(=O)(=O)[O-])c(OS(=O)(=O)[O-])c2)oc2cc(OS(=O)(=O)[O-])cc(OCCCOc3cc(OS(=O)(=O)[O-])cc4oc(-c5ccc(OS(=O)(=O)[O-])c(OS(=O)(=O)[O-])c5)c(OS(=O)(=O)[O-])c(=O)c34)c12.[Na+].[Na+].[Na+].[Na+].[Na+].[Na+].[Na+].[Na+] [G2.2]
- mRNA levels of several CSC markers (CSC markers mRNA): marked decrease
- inhibition of monolayer growth (bulk tumor cells) (HT-29 cell line): minimal effect
- BMI-1 expression [1]: significant inhibition
- OCT-4 levels [1]: little effect
- c-MYC expression [1]: significant inhibition
- reduction in LGR5 (hi) cells (LGR5): 39%
- reduction in tumor volume (HCT116 cells; between days 5-19, intratumoral, not statistically significant (p>0.1)): 20-42%
- attenuation of CXCR4 positive cells in xenografts (HCT116 cells; [8]): ~75%
- attenuation of LGR5 positive cells in xenografts (HCT116 cells; [8]): ~78%
- overall animal weight [2]: no effect
- pIC50 (HT-29 cells [3]): ~4.24
- induction of apoptosis in spheroid cells ([4]; annexin V labeling and acridine orange/ethidium bromide staining, 100 μM, 24 hours, vs vehicle): 2 to 3 fold
- induction of apoptosis in CSC-poor monolayer counterparts ([4]; monolayer cells): did not induce apoptosis
- proportion of spheroid cells in G1 phase (cell cycle progression) (HT-29 colon cancer cells): small increase
- protein expression of CSC markers (LGR5, CXCR4) ([5]; 6 hours): minimal change
- protein expression of CSC markers (LGR5, CXCR4) ([5]; 24 hours): significant decrease
- reduction of expression of CSC markers (CD44, CD133, EpCAM, LGR5, CXCR-4) [5]: 25-55%
- CK20 expression (colonic differentiation marker) (CK20): modest induction
- inhibition of spheroid formation, potency relative to HT-29 [6]: essentially identical potency
- inhibition of spheroid formation, potency relative to HT-29 (HCT-116): essentially identical potency

SMILES: O=c1c(OS(=O)(=O)[O-])c(-c2ccc(OS(=O)(=O)[O-])c(OS(=O)(=O)[O-])c2)oc2cc(OS(=O)(=O)[O-])cc(OCCOc3cc(-c4oc5cc(OS(=O)(=O)[O-])cc(OCCOc6cc(OS(=O)(=O)[O-])cc7oc(-c8ccc(OS(=O)(=O)[O-])c(OS(=O)(=O)[O-])c8)c(OS(=O)(=O)[O-])c(=O)c67)c5c(=O)c4OS(=O)(=O)[O-])ccc3OS(=O)(=O)[O-])c12.[Na+].[Na+].[Na+].[Na+].[Na+].[Na+].[Na+].[Na+].[Na+].[Na+].[Na+] [G4.1]
- Screen 2 outcome (2° and 3° spheroid growth inhibition) (HT-29 cells [7]): completely failed
- reduction of expression of CSC markers (CD44, CD133, EpCAM, LGR5, CXCR-4) [5]: no effect
